# Assay results: US12433863B2, “Pharmaceutical compositions and uses directed to lysosomal storage disorders” (INTRABIO LIMITED, priority 2016, dated 2025)
# Values joined by “and” are separate entries in the source; they are usually repeats but may differ in a detail not shown here. Equal values may be shown once.
# How the values were obtained:
# [1] = tested on: Npc1^−/− (BALB/cNctr-Npc1^m1N/J) mouse; experiment: In vivo mouse study in Npc1-/- mouse model of NPC (coat, weight, CatWalk gait, open field motor function, lifespan)
# Experimental: Separate groups of Npc1^-/- and Npc1^+/+ mice were left untreated, as controls. […] Animals were weighed twice a week. Weights were averaged (mean) across all mice in each group and compared. Gait analysis was performed on mice at eight weeks of age using a CatWalk® 15.0 system according to manufacturer's instructions (Noldus, Nottingham, UK). Five runs were recorded per animal. CatWalk® parameters measured were: • 1. Stand Mean: average duration (s) of paws in contact with glass plate; • 2. Step Cycle: duration (s) between two consecutive contacts of the same paw; • 3. Duty Cycle: percentage of time paws in contact with plate compared with time to complete a step cycle; • 4. Step Sequence (AB): percentage of time spent walking in LF-RH-RF-LH alternating pattern (LF: left front; RH: right hind; RF: right front; LH left hind); • 5. Cadence: step per seconds in a trial; • 6. Diagonal Support: percentage of time with simultaneous contact of diagonal paws with the glass plate (RF&LH or RH&LF). Motor Function Analysis Motor function analysis was performed on mice at eight and nine weeks of age using an Open Field Activity Monitor according to manufacturer's instructions (Linton Instruments, Amlogger Software). Each mouse was placed in a plastic cage with bedding and analysed for five minutes. Rears were counted manually. Motor function parameters measured were: • 1. Centre Rearing: mice rearing on hind legs unsupported; • 2. Rearing: mice rearing on hind legs with and without the support of cage walls; • 3. Activity: regular movement of the animal including walks; • 4. Front to Back (FR) count: movement of the animal from front to back of the cage; • 5. Active Time: duration (s/min) of activeness regardless of movement; • 6. Mobile Time: duration (s/min) of mobility; • 7. Rearing Time: duration of any rearing.
# [2] = tested on: Hexb^−/− mouse (Sandhoff disease model); experiment: Sandhoff disease mouse model (lifespan, bar crossing test, step cycle); type: in vivo
# Experimental: This study made use of a mouse model of Sandhoff disease, the Hexb^−/− mouse, as described in Jeyakumar et al. (Jeyakumar, M. et al. (1999) Proc. Natl. Acad. Sci. USA 96: 6388-6393).
# Wild-type (Hexb^+/+) mice were used as controls.
# In FIG. 7A, acetyl-leucine-treated mice were treated with 0.1 g/kg acetyl-leucine from 3 weeks of age. The asterisks (*) indicates a p-value of <0.05 vs untreated Sandhoff mice. Data is average of n=6 mice per group. Without treatment, the median survival time of Sandhoff mice was 112 days. Treatment with acetyl-leucine (0.1 g/kg body weight since 3 weeks of age) increased the median lifespan to 120 days.
# The bar crossing test is a method for assessing motor function in mice in which the mouse is placed hanging from the centre of a horizontal bar by its front limbs. A wild-type mouse with normal motor function will be able to engage its hind limbs and thereby move to one of the platforms at either end of the bar, and in doing so complete the test.
# An untreated Sandhoff mouse is able to complete the test up until around 11 weeks of age. After this point motor function and hind-limb mobility/engagement have deteriorated to the point to which the mouse cannot complete the test, and will drop from the bar onto the padded surface below.
# Step cycle is the length of time taken during locomotion by a limb from the time it leaves the ground until it leaves the ground on the next occasion.
# Step cycle time was assessed at 12 weeks of age in untreated and acetyl-leucine treated Sandhoff model mice. Acetyl-leucine treatment constituted 0.1 g/kg body weight acetyl-leucine from 3 weeks of age.
# [3] = tested on: AB variant of Tay-Sachs disease patient fibroblasts; experiment: Glycosphingolipid (GSL) levels by HPLC in AB variant of Tay-Sachs disease patient fibroblasts; type: cell-based, human; conditions: 1 mM for 6 days
# NPC patients = experiment: Clinical severity score (CSS) and annual severity increment score (ASIS) in ten NPC patients; type: in vivo, human; conditions: 4.5 g/day
# Text: An NPC patient's severity may be quantified by assigning a clinical severity score (CSS), which assesses various parameters of the disease and gives each parameter a score out of 5 (higher score =greater severity). See Yanjanin et al., “Linear Clinical Progression, Independent of Age of Onset, in Niemann-Pick Disease, Type C,” Am J Med Genet Part B 153B:132-140. In an untreated patient, one can typically predict how the CSS will change over time in an individual, as disease progression appears to be linear. For example, if Patient A moves from a CSS of 8 to a CSS of 12 between month 0 and month 12, it can be predicted that by month 36, the patient will have a CSS of 20. The annual severity increment score (ASIS) quantities the annual rate of change in the CSS, calculated by dividing the CSS of a patient by the patient's age. […] Each year, the patient would be expected to progress by 4 CSS points, such that at 4 years of age, the patient's CSS would be 16. If therapeutic intervention slowed or arrested disease progression, one would expect the patient to have a smaller ASIS score after such therapy than at baseline.
# Ten NPC patients were administered acetyl-leucine at 4.5 g/day over long durations. A CSS was determined at baseline, and at various time points, for eye movement, ambulation, speech, swallow, fine motor skills, cognition, memory, and seizures. An overall CSS was calculated at baseline and at each such time point by adding the individual CSS values for each parameter (eye movement, ambulation, etc.).
# The ASIS at baseline and each time point was calculated using each patient's CSS and age at the time of assessment. The overall ASIS for each patient at each time point is shown below in Table 15.
# patients with ataxia = conditions: Becker-Bense et al. 2015; cited from earlier work
# [4] = one line per patient, days per Table 5, listed as acetyl-leucine
# [5] = one line per patient, score out of 5, listed as acetyl-leucine
compound,measurement,setting,value
CC(=O)NC(CC(C)C)C(=O)O (racemic) [acetyl-DL-leucine],Delay until display of disease symptoms versus untreated Npc1-/- mice,[1]; Npc1-/- mice treated from weaning,two
same,Delay of weight loss symptoms compared to the untreated group,"[1]; Npc1-/- mice, 0.1 g/kg from weaning",two
same,Gait properties (CatWalk) compared to untreated littermates,"[1]; Npc1-/- mice, 0.1 g/kg from weaning, eight weeks of age",significantly improved gait
same,Motor function properties (Open Field Activity Monitor) compared to untreated littermates,"[1]; Npc1-/- mice, 0.1 g/kg from weaning, nine weeks of age",significantly improved motor function
same,Coat condition,"[1]; Npc1-/- mice, 0.1 g/kg in chow from weaning, nine weeks of age",smooth and glossy coat
same,Lifespan,"[1]; Npc1-/- mouse, 0.1 g/kg from 3 weeks of age",small but statistically significant increase in lifespan
same,Average step cycle time,"[2]; Sandhoff mice, 12 weeks of age, 0.1 g/kg from 3 weeks, p<0.001 vs untreated",significantly faster average step cycle times
same,Hind step cycle time,"[2]; Sandhoff mice, 12 weeks of age, 0.1 g/kg from 3 weeks, p<0.01 vs untreated",significantly faster hind step cycle times
same,Front step cycle time,"[2]; Sandhoff mice, 12 weeks of age, 0.1 g/kg from 3 weeks, p<0.05 vs untreated",significantly faster front step cycle times
same,Motor function assessed via the bar-crossing test,"[2]; Sandhoff mouse model, 0.1 g/kg body weight from 3 weeks of age",improved motor function and hind-limb mobility/engagement
same,Lifespan versus untreated Sandhoff mice,"[2]; Sandhoff mouse, 0.1 g/kg from 3 weeks of age, p<0.05",statistically significant increase in the lifespan
same,GSL levels (GSL storage),[3],trend towards decreased GSL levels
same,"CSS overall, Time Point 2","NPC patients; one line per patient (Patient I.D 1-10), days per Table 5, listed as acetyl-leucine",33 and 12 (3×) and 13 and 23 and 19 and 22 and 11 (2×)
same,"CSS overall, Time Point 3",NPC patients; [4],33 and 11 (2×) and 10 (2×) and 12 and 21 (2×) and 19
same,"CSS overall, Time Point 4",NPC patients; [4],33 and 12 and 21
same,"CSS eye movement, Time Point 4","NPC patients; one line per patient, score out of 5",3
same,"CSS ambulation, Time Point 2",NPC patients; [5],5 and 1 (3×) and 2 (5×) and 4
same,"CSS ambulation, Time Point 4",NPC patients; [5],5 and 1 and 2
same,"CSS cognition, Time Point 2",NPC patients; [5],5 and 3 (5×) and 4 (3×) and 2
same,"CSS cognition, Time Point 3",NPC patients; [5],5 and 3 (5×) and 4 (3×)
same,"CSS cognition, Time Point 4",NPC patients; [5],5 and 3 and 4
same,"CSS eye movement, Time Point 2",NPC patients; [5],3 (9×) and 2
same,"CSS eye movement, Time Point 3",NPC patients; [5],3 (7×) and 2 (2×)
same,"CSS fine motor skills, Time Point 2",NPC patients; [5],5 and 1 (6×) and 4 (2×) and 2
same,"CSS fine motor skills, Time Point 3",NPC patients; [5],5 and 1 (5×) and 4 (2×) and 2
same,"CSS fine motor skills, Time Point 4",NPC patients; [5],5 and 1 and 4
same,"CSS memory, Time Point 2",NPC patients; [5],4 (3×) and 1 (5×) and 3 and 0
same,"CSS memory, Time Point 3",NPC patients; [5],4 (2×) and 0 (2×) and 1 (3×) and 3 (2×)
same,"CSS memory, Time Point 4",NPC patients; [5],4 and 1 and 3
same,"CSS seizures, Time Point 2",NPC patients; [5],5 and 0 (9×)
same,"CSS seizures, Time Point 3",NPC patients; [5],5 and 0 (8×)
same,"CSS seizures, Time Point 4",NPC patients; [5],5 and 0 (2×)
same,"CSS speech, Time Point 2",NPC patients; [5],2 (4×) and 1 (6×)
same,"CSS speech, Time Point 3",NPC patients; [5],2 (3×) and 1 (6×)
same,"CSS speech, Time Point 4",NPC patients; [5],2 (2×) and 1
same,"CSS swallow, Time Point 2",NPC patients; [5],4 and 2 (5×) and 3 (3×) and 0
same,"CSS swallow, Time Point 3",NPC patients; [5],4 and 2 (4×) and 3 (3×) and 0
same,"CSS swallow, Time Point 4",NPC patients; [5],4 and 2 and 3
same,Change in overall CSS over the course of the experiment,NPC patients; ten NPC patients,none of the ten patients showed an overall increase in CSS
same,Brain metabolism by PET,patients with ataxia,increased metabolism in the midbrain and lower brainstem in responders
